Experimental data as given in publication PMC3017236 (Clinical cancer research : an official journal of the …, 2010).
Like-named read-outs stand apart in the source and are kept apart here.

Legend:
[1] = target: T1, organic anion transporter-3 (OAT3) (Homo sapiens, UniProt Q8TCC7); test: Uptake in HEK-293 cells transfected with OAT3 vs empty vector; conditions: HEK-293/OAT3, 5 minutes incubation, 0.5 μg/mL
T1 sequence (Q8TCC7 1-542): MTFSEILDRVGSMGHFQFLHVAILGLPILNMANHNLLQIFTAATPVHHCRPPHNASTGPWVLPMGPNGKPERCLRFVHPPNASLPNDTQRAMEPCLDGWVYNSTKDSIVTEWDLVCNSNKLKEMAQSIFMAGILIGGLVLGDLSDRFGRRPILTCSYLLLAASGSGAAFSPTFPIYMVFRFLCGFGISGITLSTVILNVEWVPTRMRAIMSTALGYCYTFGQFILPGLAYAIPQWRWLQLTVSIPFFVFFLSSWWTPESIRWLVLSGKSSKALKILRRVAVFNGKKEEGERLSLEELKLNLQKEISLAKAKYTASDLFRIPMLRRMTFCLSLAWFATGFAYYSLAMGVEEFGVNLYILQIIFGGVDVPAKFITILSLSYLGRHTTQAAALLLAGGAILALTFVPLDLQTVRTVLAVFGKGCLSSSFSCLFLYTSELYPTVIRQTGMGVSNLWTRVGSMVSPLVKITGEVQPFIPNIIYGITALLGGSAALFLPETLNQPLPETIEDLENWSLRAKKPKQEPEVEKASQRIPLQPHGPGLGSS

[2] = target: T2, human MRP4 (Homo sapiens, UniProt O15439); test: Intracellular accumulation in Saos2-MRP4 cells vs Saos2-pcDNA3.1; conditions: Saos2-MRP4 vs Saos2-pcDNA3.1, 0.5 μg/mL, 37°C
T2 sequence (O15439 1-1325): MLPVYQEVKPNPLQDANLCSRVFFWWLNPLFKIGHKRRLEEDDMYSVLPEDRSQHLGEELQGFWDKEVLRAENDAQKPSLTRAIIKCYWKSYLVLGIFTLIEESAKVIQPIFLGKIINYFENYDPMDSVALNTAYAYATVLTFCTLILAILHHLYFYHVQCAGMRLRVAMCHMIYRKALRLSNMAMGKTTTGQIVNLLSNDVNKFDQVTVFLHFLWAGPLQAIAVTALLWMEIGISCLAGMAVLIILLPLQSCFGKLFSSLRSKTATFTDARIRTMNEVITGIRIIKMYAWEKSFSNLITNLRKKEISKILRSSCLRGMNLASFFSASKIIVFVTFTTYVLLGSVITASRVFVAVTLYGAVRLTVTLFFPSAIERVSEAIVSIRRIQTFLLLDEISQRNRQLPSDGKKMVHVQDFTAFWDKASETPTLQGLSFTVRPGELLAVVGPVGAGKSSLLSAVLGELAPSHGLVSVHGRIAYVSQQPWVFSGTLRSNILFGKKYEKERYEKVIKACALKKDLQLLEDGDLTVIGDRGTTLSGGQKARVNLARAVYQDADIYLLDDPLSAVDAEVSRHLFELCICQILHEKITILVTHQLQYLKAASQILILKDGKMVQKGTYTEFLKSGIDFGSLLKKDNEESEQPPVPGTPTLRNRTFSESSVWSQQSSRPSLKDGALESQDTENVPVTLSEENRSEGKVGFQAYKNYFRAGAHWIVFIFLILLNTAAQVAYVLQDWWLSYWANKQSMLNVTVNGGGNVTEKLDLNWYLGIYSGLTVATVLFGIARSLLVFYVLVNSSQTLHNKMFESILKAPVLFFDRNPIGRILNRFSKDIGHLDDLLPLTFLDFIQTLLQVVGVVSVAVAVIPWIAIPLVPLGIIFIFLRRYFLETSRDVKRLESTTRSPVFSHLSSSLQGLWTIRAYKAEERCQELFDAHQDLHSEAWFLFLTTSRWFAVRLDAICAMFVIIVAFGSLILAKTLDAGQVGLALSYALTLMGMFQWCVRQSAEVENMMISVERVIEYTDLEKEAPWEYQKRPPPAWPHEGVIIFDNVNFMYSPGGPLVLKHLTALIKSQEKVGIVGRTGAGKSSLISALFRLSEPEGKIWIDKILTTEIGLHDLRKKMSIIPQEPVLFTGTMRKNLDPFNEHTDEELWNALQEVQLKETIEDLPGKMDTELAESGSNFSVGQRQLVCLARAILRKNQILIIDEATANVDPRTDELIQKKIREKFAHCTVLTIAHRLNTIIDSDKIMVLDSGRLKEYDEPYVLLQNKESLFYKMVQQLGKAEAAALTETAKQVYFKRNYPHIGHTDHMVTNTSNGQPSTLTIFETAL

[3] = humans; cited from earlier work
[4] = target: T3, organic cation transporter-2 (OCT2) (Homo sapiens, UniProt O15244); test: Uptake in HEK-293 cells transfected with OCT2 vs empty vector; conditions: HEK-293/OCT2, 5 minutes incubation, 0.5 μg/mL
T3 sequence (O15244 1-555): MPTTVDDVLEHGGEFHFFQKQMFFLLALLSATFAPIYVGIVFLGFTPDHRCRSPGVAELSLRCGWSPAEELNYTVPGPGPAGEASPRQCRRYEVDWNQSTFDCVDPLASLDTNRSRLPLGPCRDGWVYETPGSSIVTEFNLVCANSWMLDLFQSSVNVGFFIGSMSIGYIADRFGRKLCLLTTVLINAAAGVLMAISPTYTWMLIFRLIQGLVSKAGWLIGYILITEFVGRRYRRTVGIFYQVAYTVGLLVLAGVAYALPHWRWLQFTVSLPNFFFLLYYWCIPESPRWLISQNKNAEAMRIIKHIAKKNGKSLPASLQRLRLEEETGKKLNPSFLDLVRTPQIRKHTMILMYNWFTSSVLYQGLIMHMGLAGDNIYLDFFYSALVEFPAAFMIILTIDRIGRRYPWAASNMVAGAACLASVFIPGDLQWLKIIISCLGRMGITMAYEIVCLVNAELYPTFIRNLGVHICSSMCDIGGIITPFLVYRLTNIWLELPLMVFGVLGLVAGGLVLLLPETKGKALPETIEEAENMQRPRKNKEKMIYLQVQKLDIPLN

| SMILES | Uptake vs empty vector HEK-293 cells [1] | Intracellular accumulation vs control cells [2] | Systemic exposure relative to that of erlotinib [3] | Uptake vs empty vector HEK-293 cells [4] | Differences in unbound fraction between strains (mouse, plasma) | Unbound fraction (fu) (mouse, plasma) | Uptake vs empty vector HEK-293 cells ([1]; listed as Erlotinib) | Renal clearance component as share of overall elimination [3] | Uptake vs empty vector HEK-293 cells ([4]; listed as Erlotinib) | Differences in unbound fraction between strains (plasma from each mouse strain, equilibrium dialysis) |
| --- | --- | --- | --- | --- | --- | --- | --- | --- | --- | --- |
| C#Cc1cccc(Nc2ncnc3cc(OCCOC)c(OCCO)cc23)c1 [OSI-420] | significantly higher | did not show a significant difference | 10-20% | significantly increased | No significant differences | 6.6 % ± 0.7% |  |  |  |  |
| C#Cc1cccc(Nc2ncnc3cc(OCCOC)c(OCCOC)cc23)c1 [erlotinib, Erlotinib] | significantly higher | did not show a significant difference |  | significantly increased |  |  | higher | ~ 10% | higher | No significant differences |
